Results published in US7041705B2, “Injectable aqueous dispersions of propofol” (Jagotec AG, priority 1998, dated 2006).
Counter-ions that a name gives are not always drawn. Like-named read-outs stand apart in the source and are kept apart here.

Tested on: human whole-blood (erythrocytes)
Conditions: both
Experimental: In-vitro evaluation of the hemolytic influence of the preparations of this invention on human whole-blood was determined as a further guide to selecting formulations with a low tendancy to produce irritation around the site of injection. The hemolytic potential of the formulation on blood was evaluated by the assay of erythrocyte cytoplasmic marker enzyme, lactate dehydrogenase (LDH). Measurement of erythrocyte cytoplasmic marker enzyme. LDH, which escapes from the leaky or ruptured erythrocytes into tie plasma compartment of the blood, is one of the commonly used quantitative assays described in literature for evaluation of hemolytic potential of injectable formulations (Stenz and Bauer, 1996). The blood was obtained from male or female Caucasian human volunteers of 18 to 65 years age and stabilized with sodium heparin. The test formulation was mixed with an equal volume of human whole blood and incubated at 37° C. for about 1 hour. The mixture was then held at ambient temperature for 30 min. followed by centrifugation at 1500 rpm for 10 min. The level of LDH in the supernatant was determined by a standard procedure known to the scientists skilled in this art.

- LDH (1.8 mg/mL): 673 IU/L
- LDH (50 mg/mL): 8190 IU/L
SMILES: CCCCc1oc2ccccc2c1C(=O)c1cc(I)c(OCCN(CC)CC)c(I)c1 [Amiodarone hydrochloride]
